Assay results reported in patent publication EP2481744A1, “Aromatic bis-phosphoramidate additives as flame retardants for polymers” (EMPA Eidgenössische Materialprüfungs- und Forschungsanstalt, priority 2011, dated 2012).
Converted amounts (≈) assume the structure as drawn. Like-named read-outs stand apart in the source and are kept apart here.

Key:
[1] = deionized water, 16 h
[2] = Solubility in deionized water (shaking flask, phosphorus content by ICP-OES); details: 0.5 gm in 50 ml deionized water, 21 °C, 16 hrs

| Solubility [2] [µg/mL] | SMILES | Solubility [1] [µg/mL] |
| --- | --- | --- |
| – | CCOP(=O)(Nc1ccc(NP(=O)(OCC)OCC)cc1)OCC [p-PAPTEE, Phosphoramidic acid, 1,4-phenylenebis-, tetraethyl ester] | 47 (≈ 124 µM) |
| 56 (≈ 128 µM) | CC(C)OP(=O)(Nc1ccc(NP(=O)(OC(C)C)OC(C)C)cc1)OC(C)C [p-PAPTiPE, Phosphoramidic acid, 1,4-phenylenebis-, tetra isopropyl ester] | – |
